The values below come from PubChem BioAssay AID1687.

The test has as its target pyruvate kinase (Geobacillus stearothermophilus). Briefly: modulators of bacterial pyruvate kinase activity – biochemical, Geobacillus stearothermophilus, confirmation (AID 1687). The following applies: purified enzyme, LDH-coupled NADH absorbance 340 nm.

As for `CCn1c2ccccc2n2cc(-c3ccc4c(c3)OCO4)nc12`, the half-maximal activity concentration (AC50) was 2 µM.

`C=CCn1c2ccccc2n2cc(-c3ccc4c(c3)OCO4)nc12`: the AC50 is 10.5 µM.

In the case of `Cn1c2ccccc2n2cc(-c3ccc4c(c3)OCO4)nc12`, the AC50 is 1 µM.

For `CCN(CC)CCn1c2ccccc2n2cc(-c3ccc4c(c3)OCO4)nc12`, the AC50 is 2.2 µM.

As to `CN(C)CCn1c2ccccc2n2cc(-c3ccc4c(c3)OCO4)nc12`, the AC50 is 1.7 µM.

On to `COc1cccc(CN2c3cccc4cccc(c34)S2(=O)=O)c1`, for which the AC50 is 5.5 µM.

For `CN(C)CCCN(C(=O)c1ccc(Cl)s1)c1nc2cc3c(cc2s1)OCO3`, the AC50 was 8.9 µM.

As for `NNC(=O)c1ccc(CN2c3cccc4cccc(c34)S2(=O)=O)cc1`, the half-maximal activity concentration (AC50) is 4.9 µM.

As for `O=C(CN1c2cccc3cccc(c23)S1(=O)=O)NCc1ccccc1OC(F)F`, the AC50 was 7.6 µM.
